Legend:
[1] = system: Cry j 1-specific T cell line; test: Reactivity of Cry j 1-specific T cell line; type: cell-based, human; conditions: from patients with cedar pollinosis
Text: (§1) Two peptides (Cha o 1 #8-Cry j 1 #22 core, Cha o 1 #32-Cry j 1 #22 core) were synthesized by joining Peptide No. 8 (p71-90: […] SEQ ID NO. 11) which is a T cell epitope of hinoki pollen allergen Cha o 1 (Japanese Patent Application N. Hei. 8-15327), or Peptide No. 32 ([…]: […] SEQ ID NO. 12) to Cry j 1 #22 core sequence “FIKRVSNVI”(SEQ ID NO. 7) obtained in Example 14 using a peptide synthesizer (PSSM-8, Shimadzu Seisakusho Ltd.). An RR sequence was inserted between Cha o 1 #8 and Cry j 1 #22 core and between Cha o 1 #32 and Cry j 1 #22 core, that is, Cha o 1 #8-Cry j 1 #22 core (SEQ NO: 4) and Cha o 1 #32-Cry j 1 #22 core (SEQ NO: 5).
(§2) A Cry j 1-specific T cell line and a Cha o 1-specific T cell line were prepared from the patients with cedar pollinosis and hinoki pollinosis, respectively. […] However, these T cell lines all react with the multi-epitope peptide of SEQ NO: 4 and with the multi-epitope peptide of SEQ NO: 5.

[2] = system: Cha o 1-specific T cell line; test: Reactivity of Cha o 1-specific T cell line; type: cell-based, human; conditions: from patients with hinoki pollinosis
Text: as §1, §2

[3] = system: T cell clone PJ7-9; test: Proliferation response and cytokine production of T cell clone PJ7-9 to analog peptides; type: cell-based, human; conditions: unsubstituted 13-residue peptide regarded as 100%
Text: Two clones, PJ7-9 and PB10-18, were employed to see if the activity of T cells can be altered by substituting the amino acids of T cell epitope peptide of the Cry j 1 #22 core. T cell clones PJ 7-9 and PB10-12 which react with Cry j 1 Peptide No. 22 p106-120 are restricted by DRB5*0101 and recognize the nine residues of the Cry j 1 #22 core. Each of the nine amino acids residues in the peptides p108-120 (VFIKRVSNVIIHG SEQ ID NO. 13) of 13 residues including the nine residues were substituted with an homologous amino acid and a non-homologous amino acid to produce analog peptides (FIGS. 17 and 18). The reactivity of T cell clones PJ 7-9 and PB 10-18 with these analog peptides was examined in terms of the uptake of [^3H] thymidine. The concentration of cytokine in the reaction solution was measured using a cytokine assay kit manufactured by R & D Systems. The production of IFN-γ, IL-4, IL-2, and IL-5 in the supernatant and the uptake of [^3H] thymidine obtained by reacting the peptide of 13 residues with no amino acid substitution were regarded as 100%. […] Accordingly, the amino acids located in these positions are considered to be important for forming the complex of HLA and T cell receptor molecules via the peptide. […] For the PB 10-18 clone, the uptake of [3H] thymidine is suppressed by substitution of amino acid No. 1, 2, 3, 4, 6, 7, or 8 of Cry j 1 #22 core. The amino acids located in these positions are considered to be important for forming the complex of HLA and T cell receptor molecules via the peptide. It is further observed that the IL-2 production is suppressed by substitution of amino acid No. 6, 7, or 8, as compared to IL-5 production (FIG. 18).

[4] = system: human IgE antibody; test: Reactivity of the multi-epitope peptides with human IgE antibody (fluorescence plate assay); type: binding; conditions: 21 tested patients with cedar pollinosis
Procedure: The six multi-epitope peptides (C.A.#1 through C.A.#6) obtained in Example 6 were dissolved in 0.2 M acetate buffer solution (pH 4.5). The solution was dispensed in quantities of 0.1 ml/well in a black plate (manufactured by Dainihon Pharmaceutical Co., Ltd.) then allowed to stand at 4° C. overnight. After the antigen solution was removed, the wells were washed three times with a washing solution and the serum (4-fold dilution) from 29 patients with cedar pollinosis and healthy subjects were each added to separate wells. The system was then reacted at 37° C. for 4 hours. After the sera were removed, the wells were washed three times with a washing solution then reacted with anti-human IgE antibody (made by Pharmacia Inc.) at room temperature overnight. After washing three times with a washing solution, a substrate solution containing 0.1 mM 4-methylumbelliferyl-, β-D-galacto-pyranoside/0.01 M phosphate buffer (pH 7.0), 0.1 M NaCl, 1 mM MgCl2, 0.1% NaN, and 0.1% BSA was added, and the solution was incubated at 37° C. for 2 hours. A solution of 0.1 M glycine/NaOH (pH 10.3) was added to the wells to terminate the reaction. Fluorescent intensity was measured using a fluorophotometer (Labsystems). For positive control to each multi-epitope peptide, biotin-labeled rabbit anti-d epitope IgG and peroxidase-labeled streptoavidin (made by Pierce Inc.) were reacted.

[5] = system: peripheral lymphocytes; test: Proliferation response of peripheral lymphocytes induced by multi-epitope peptide; type: cell-based, human
Procedure: Peripheral lymphocytes derived from the patients with cedar pollinosis or from healthy subjects were suspended in RPMI-1640 culture medium supplemented with 10% human sera. The suspension was distributed in each well of a 96-well culture plate with a round bottom in a concentration of 2.5×10^5 cells/200 μl. The multi-epitope peptide represented by SEQ NO: 1, either Cry j 1 or Cry j 2, was added to each well to a final concentration of 0.001 to 20 μg/ml of the multi-epitope peptide, 50 μg/ml of Cry j 1 or 2 μg/ml of Cry j 2. The plate was incubated for 6 days. After 0.5 μCi [^3H] thymidine was added to the medium, incubation was continued for a further 16 hours. After the cells were harvested on a glass filter using a cell harvester, the level of [^3H] thymidine taken up into the cells was determined using a liquid scintillation counter.
Peripheral lymphocytes from 17 patients with cedar pollinosis and two healthy subjects were stimulated by 10 μg/ml of the multi-epitope peptide to evaluate T cell response. […] In the 17 patients, a maximum [^3H] thymidine uptake of 9,652 cpm was observed. When [^3H] thymidine uptake of peripheral lymphocytes without antigen stimulation is regarded as 1, the uptake of [^3H] thymidine by peripheral lymphocytes in the presence of an antigen is expressed by a stimulation index (SI). Upon identification of T cell epitopes, SI>2 is regarded to be positive. Similarly, SI>2 is judged to be proliferation responsive to the peptide. […] From the results, the peptide-based immunotherapy is effective when administered to 76.5% of the cedar pollinosis patients.

[6] = system: T cell clones; test: Recognizing the T cell epitopes in the multi-epitope peptide C.A.#4 by T cell clones; type: cell-based, human; conditions: C.A.#4 10 μg/ml
Procedure: The antigenic peptide constituting the multi-epitope peptide C.A.#4 obtained in Example 6 was examined to determine if the antigenic peptide actually functions as a T cell epitope.
On a 96-well micro culture plate, a mixture of 5×10^4 cells of the autologous B cell line previously treated with mitomycin C and 2×10^4 cells of the T cell clone was incubated for 2 days in 0.2 ml 15% serum-supplemented RPMI-1640 medium, together with, as an antigen, either 50 μg/ml of Cry j 1 and 2 μg/ml of Cry j 2, each antigenic peptide constituting the multi-epitope peptide C.A.#4 or 10 μg/ml C.A.#4 multi-epitope peptide produced by gene expression. After 0.5 μCi [^3H] thymidine was added to the medium, incubation was continued for a further 16 hours. After the cells were harvested on a glass filter using a cell harvester, the level of [^3H] thymidine taken up into the cells was determined using a liquid scintillation counter.

For “SEQ NO: 5: Cha o 1 #32 joined to Cry j 1 #22 core with an RR sequence inserted (SSGKNEGTNIYNNNEAFKVERRFIKRVSNVI; listed as Cryptomeria japonica)”, the “reactivity of Cry j 1-specific T cell line” value [1] was “react with” and the “reactivity of Cha o 1-specific T cell line” value [2] was “react with”.

With FIKRVSNVI [Cry j 1 #22 core] the “reactivity of Cry j 1-specific T cell line” value [1] was “reacts with” and the “reactivity of Cha o 1-specific T cell line” value [2] was “does not react with”.

With IFSKNLNIKLNMPLYIAGNK [Cha o 1 #8] the “reactivity of Cry j 1-specific T cell line” value [1] was “does not react with” and the “reactivity of Cha o 1-specific T cell line” value [2] was “reacts with”.

For “SEQ NO: 4: Cha o 1 #8 joined to Cry j 1 #22 core with an RR sequence inserted (IFSKNLNIKLNMPLYIAGNKRRFIKRVSNVI; listed as Cryptomeria japonica)”, the “reactivity of Cry j 1-specific T cell line” value [1] was “react with” and the “reactivity of Cha o 1-specific T cell line” value [2] was “react with”.

With “SIKRVSNVI (listed as Cryptomeria japonica) [Cry j 1 #22 core with the first amino acid F substituted with S]” the IFN-γ production [3] was “marked increase”, the IL-2 production [3] was “marked increase” and the “uptake of [3H] thymidine” value [3] was “no change”.

With SSGKNEGTNIYNNNEAFKVE [Cha o 1 #32] the “reactivity of Cry j 1-specific T cell line” value [1] was “does not react with” and the “reactivity of Cha o 1-specific T cell line” value [2] was “reacts with”.

B1: SEQ NO: 2: joining p213-225 and p108-120 of Cry j 1, p182-200 and p79-98 of Cry j 2, p80-95 of Cry j 1, p66-80 of Cry j 1 (peptide, listed as Cryptomeria japonica)
chain: MKVTVAFNQFGPNRRVFIKRVSNVIIHGRRIDIFASKNFHLQKNTIGTGRRWKNNRIWLQFAKLTGFTLMGRRLKMPMYIAGYKTFDGRRVDGIIAAYQNPASWK
In the case of B1, the “reaction with the IgE antibody of the patients” value [4] is reported as “did not react” and the “stimulation of peripheral lymphocyte samples” value ([5]; 21 tested patients with cedar pollinosis) is reported as “stimulated all the peripheral lymphocyte samples”.

B2: SEQ NO: 1: multi-epitope peptide containing selected T cell epitopes of Cry j 1 and Cry j 2 joined via Arg-Arg (peptide, listed as Cryptomeria japonica)
chain: MKVTVAFNQFGPNRRVFIKRVSNVIIHGRRIDIFASKNFHLQKNTIGTGRRISLKLTSGKIASRRVDGIIAAYQNPASWK
In the case of B2, the “patients with proliferation response (SI>2)” value ([5]; 13 out of the 17 patients, 10 μg/ml) is reported as 76.5%, the “maximum [3H] thymidine uptake” value ([5]; 17 patients, 10 μg/ml) is reported as 9,652 cpm and the “proliferation response of peripheral lymphocytes” value ([5]; one patient and two healthy subjects, 0.001 to 20 μg/ml) is reported as “no proliferation response”. The “patients whose peripheral lymphocytes showed proliferation response” value ([5]; six patients with cedar pollinosis, 0.001 to 20 μg/ml) was “five out of six” and the “T cell proliferation response of peripheral lymphocytes from healthy subjects” value ([5]; two healthy subjects, 10 μg/ml) was “No response to T cell proliferation was observed”.

B3: a-Arg-Arg-b-Arg-Arg-d-Arg-Arg-e-Arg-Arg-c (peptide)
peptide: KSMKVTVAFNQFGPNRRPCVFIKRVSNVIIHGRRAPRDSPNTDGIDIFASKNFHRRKDIKLSDISLKLTSGKIASCRRPCQPHFTFKVDGIIA
notes: produced by gene expression
In the case of B3, the “proliferation response of T cell clone PB14-19 (recognizes Cry j2 p341-355)” value [6] is reported as “somewhat weak” and the “proliferation response of the T cell clones recognizing the respective epitope” value ([6]; clones PB8-3, PB8-34, PB4-22, PB14-5, PB14-3) is reported as “comparable to that of each of the peptides”.
